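These data come from cells grown in 96-well plates and exposed to compound for 48 hours at five concentrations. Here, GI50 denotes the concentration required for 50% inhibition of growth. Definition used: TGI = concentration required for complete inhibition of growth.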

TGI and GI50 data for 22 compounds are collected here from PubChem BioAssay (NCI).

Some test systems named below: KM12 colon; MCF7 breast; MDA-MB-231 breast; NCI-H23 lung; NCI/ADR-RES ovarian; OVCAR-8 ovarian; RPMI-8226 leukemia; UACC-257 melanoma; UO-31 renal; LOX IMVI melanoma.
Holding throughout (test): DTP human tumour cell line panel, 48 h

Regarding `O=[N+]([O-])c1ccc(/C=N\Nc2ccc([N+](=O)[O-])cn2)cc1`, the TGI in the experiment on KM12 colon, in the experiment on MCF7 breast, with MDA-MB-231 breast, in the experiment with NCI-H23 lung, with NCI/ADR-RES ovarian and in the experiment with OVCAR-8 ovarian was > 100 µM in each case. For the same compound, the TGI with RPMI-8226 leukemia, in the experiment with UACC-257 melanoma and in the experiment with UO-31 renal was > 100 µM in each case.

In the case of `COc1ccc2[nH]c3c([N+](=O)[O-])ccc(Cl)c3c(=O)c2c1`, the TGI (commonly the concentration giving total growth inhibition) with KM12 colon is > 73.4 µM; in the experiment with LOX IMVI melanoma, 34.5 µM; with MCF7 breast, > 84.8 µM; in the experiment with MDA-MB-231 breast, 32.8 µM; in the experiment with NCI-H23 lung it was > 52.8 µM; with NCI/ADR-RES ovarian, > 71.2 µM. Moreover, the TGI is > 74 µM with OVCAR-8 ovarian, 45.4 µM in the experiment on RPMI-8226 leukemia, 16.5 µM in the experiment with UACC-257 melanoma and 35.5 µM in the experiment on UO-31 renal.

With `C=C1CC23CCC4C(C)(C(=O)O)CCCC4(C)C2CCC1C3` (centres undefined), the TGI in the experiment with KM12 colon, in the experiment on LOX IMVI melanoma, in the experiment on MCF7 breast, with MDA-MB-231 breast, with NCI-H23 lung and with OVCAR-8 ovarian was > 100 µM each time. Besides, the TGI in the experiment on RPMI-8226 leukemia is 91.6 µM; in the experiment with UACC-257 melanoma, > 100 µM; with UO-31 renal, 88.2 µM.

On to `c1ccc(-n2cnnc2-c2nsc3ccccc23)cc1`, for which the total growth inhibition concentration (TGI) with KM12 colon, in the experiment on LOX IMVI melanoma, with NCI-H23 lung, with OVCAR-8 ovarian, in the experiment on RPMI-8226 leukemia and in the experiment on UACC-257 melanoma was > 100 µM in each case. The TGI in the experiment on UO-31 renal is > 100 µM.

Turning to `C/C1=N\NC(=O)c2ccccc2C(=O)N/N=C(\C)c2cccc1n2.O=[N+]([O-])[O-].[Zn+2]`, the TGI in the experiment on KM12 colon, with NCI-H23 lung, with OVCAR-8 ovarian, in the experiment on RPMI-8226 leukemia, in the experiment with UACC-257 melanoma and in the experiment on UO-31 renal was > 100 µM in each case.

Turning to `COc1cc(C(C)(C)C)cc(OC)c1C(O)(c1c(OC)cc(C(C)(C)C)cc1OC)c1c(OC)cc(C(C)(C)C)cc1OC`, the GI50 – broadly, the concentration giving 50% growth inhibition – was 0.349 µM in the experiment on KM12 colon; 0.357 µM in the experiment on LOX IMVI melanoma; 0.233 µM in the experiment on RPMI-8226 leukemia; 0.268 µM in the experiment on UACC-257 melanoma; 0.241 µM with UO-31 renal. Besides, the TGI in the experiment with KM12 colon was 1.05 µM; in the experiment on LOX IMVI melanoma it was 1.45 µM; with RPMI-8226 leukemia it was 0.725 µM; in the experiment with UACC-257 melanoma, 0.702 µM; in the experiment with UO-31 renal, 0.745 µM.

As for `O=C(O)CC(C(=O)O)C1c2ccccc2-c2ccccc21` (centres undefined), the TGI with KM12 colon, with LOX IMVI melanoma, with MCF7 breast, in the experiment on MDA-MB-231 breast, in the experiment with NCI-H23 lung and in the experiment on NCI/ADR-RES ovarian was > 100 µM throughout. Further, the TGI with OVCAR-8 ovarian, with RPMI-8226 leukemia, in the experiment with UACC-257 melanoma and with UO-31 renal was > 100 µM each time.

Regarding `C=C(C)C1CC2=C(O1)C(=O)c1ccccc1C2=O` (centres undefined), the TGI in the experiment with KM12 colon is 33.4 µM; in the experiment on LOX IMVI melanoma it was > 100 µM; in the experiment on NCI-H23 lung, 45.1 µM; in the experiment with OVCAR-8 ovarian, 35.6 µM; in the experiment on RPMI-8226 leukemia, 44.5 µM; with UACC-257 melanoma, 26.2 µM.

Regarding `Nc1cc(S(=O)(=O)O)cc2cc(S(=O)(=O)O)c(N=Nc3ccc(-c4ccc(N=Nc5c(S(=O)(=O)O)cc6cc(S(=O)(=O)O)cc(N)c6c5O)cc4)cc3)c(O)c12`, the TGI in the experiment on KM12 colon, in the experiment on LOX IMVI melanoma, in the experiment with MCF7 breast, in the experiment on NCI-H23 lung, in the experiment on NCI/ADR-RES ovarian and with OVCAR-8 ovarian was > 100 µM in each case. In addition, the TGI with RPMI-8226 leukemia, in the experiment on UACC-257 melanoma and in the experiment with UO-31 renal was > 100 µM in each case.

As to `C[C@H](C(=O)N[C@@H](Cc1ccc(-c2ccccc2)cc1)C(=O)NC1CC(C)(C)N(C)C(C)(C)C1)c1ccc(-c2ccccc2)c(F)c1`, the GI50 in the experiment on MDA-MB-231 breast was 1.49 µM; in the experiment on NCI-H23 lung, 1.54 µM; with NCI/ADR-RES ovarian, 1.77 µM; with UACC-257 melanoma, 2.12 µM; in the experiment with UO-31 renal, 1.27 µM. The TGI in the experiment with MDA-MB-231 breast is 3.02 µM; in the experiment on NCI-H23 lung it was 3.08 µM; in the experiment on NCI/ADR-RES ovarian, 4.19 µM; in the experiment with UACC-257 melanoma it was 3.8 µM; in the experiment on UO-31 renal it was 2.64 µM.

Consider `C=C(C)[C@@H]1CC[C@]2(C(=O)Nc3ccccn3)CC[C@]3(C)[C@H](CC[C@@H]4[C@@]5(C)CCCNC(C)(C)[C@@H]5CC[C@]43C)[C@@H]12`, for which the GI50 was 1.82 µM in the experiment with KM12 colon; 1.48 µM in the experiment on MCF7 breast; 1.85 µM in the experiment with NCI-H23 lung; 1.93 µM in the experiment with NCI/ADR-RES ovarian; 1.44 µM with UO-31 renal. For the same compound, the TGI with KM12 colon is 3.36 µM; with MCF7 breast, 3.07 µM; in the experiment with NCI-H23 lung, 3.77 µM; in the experiment on NCI/ADR-RES ovarian, 4.14 µM; in the experiment on UO-31 renal, 2.8 µM.

As for `OC(Cc1ccccc1)(Cc1ccccc1)c1ccccc1`, the TGI with KM12 colon was 33.3 µM; with LOX IMVI melanoma it was 37.1 µM; with MDA-MB-231 breast, 33.8 µM; in the experiment with NCI-H23 lung, 38.4 µM; in the experiment with NCI/ADR-RES ovarian, 71.6 µM; with OVCAR-8 ovarian, 39.6 µM. Further, the TGI in the experiment on RPMI-8226 leukemia was > 100 µM; in the experiment with UACC-257 melanoma, 36.7 µM; in the experiment on UO-31 renal, 32.4 µM.

Turning to `COc1ccc(-c2nn(-c3ccc(NC(=O)Nc4ccc(Cl)c(Cl)c4)cc3)cc2-c2ccncc2)cc1Cl`, the GI50 with KM12 colon was 2.13 µM; in the experiment with LOX IMVI melanoma it was 2.24 µM; in the experiment on MCF7 breast, 2.37 µM; in the experiment on MDA-MB-231 breast it was 1.5 µM; in the experiment on NCI-H23 lung, 2.22 µM; in the experiment with NCI/ADR-RES ovarian, 2.06 µM. For the same compound, the GI50 was 2.72 µM in the experiment on OVCAR-8 ovarian, 0.54 µM in the experiment with RPMI-8226 leukemia, 3.14 µM in the experiment on UACC-257 melanoma and 1.51 µM in the experiment on UO-31 renal. Besides, the TGI was > 100 µM with KM12 colon; 10.4 µM with LOX IMVI melanoma; 9.34 µM in the experiment on MCF7 breast; 4.33 µM in the experiment with MDA-MB-231 breast; > 100 µM in the experiment on NCI-H23 lung; > 100 µM in the experiment with NCI/ADR-RES ovarian. Besides, the concentration for total growth inhibition (TGI) with OVCAR-8 ovarian is > 100 µM; in the experiment with RPMI-8226 leukemia it was 3.18 µM; in the experiment on UACC-257 melanoma, 11.6 µM; in the experiment on UO-31 renal, > 100 µM.

On to `C[N+]1(C)CCOC(O)(c2ccccc2)C1` (centres undefined), for which the TGI with KM12 colon, in the experiment with LOX IMVI melanoma, with MCF7 breast, in the experiment on MDA-MB-231 breast, in the experiment on NCI-H23 lung and in the experiment on NCI/ADR-RES ovarian was > 100 µM throughout. In addition, the total growth inhibition concentration (TGI) with OVCAR-8 ovarian, with RPMI-8226 leukemia, with UACC-257 melanoma and in the experiment on UO-31 renal was > 100 µM throughout.

Turning to `Cc1ccc(P(c2ccc(C)cc2)c2ccc(C)cc2)cc1`, the TGI with KM12 colon is 60.9 µM; in the experiment with LOX IMVI melanoma, 30.4 µM; in the experiment with MCF7 breast, > 100 µM; with MDA-MB-231 breast, 67.6 µM; in the experiment on NCI-H23 lung, > 100 µM; in the experiment with NCI/ADR-RES ovarian it was > 100 µM. Besides, the TGI turned out to be 59.6 µM with OVCAR-8 ovarian, 34.6 µM with RPMI-8226 leukemia, 59.3 µM with UACC-257 melanoma and 4.54 µM in the experiment on UO-31 renal.

Turning to `CCN(CC)C(=S)SC(=S)N(CC)CC`, the TGI is 64.2 µM in the experiment on KM12 colon; 58.9 µM in the experiment on LOX IMVI melanoma; > 100 µM in the experiment with MCF7 breast; > 92.1 µM with MDA-MB-231 breast; > 80.6 µM with NCI-H23 lung; > 100 µM in the experiment with NCI/ADR-RES ovarian. In addition, the TGI with OVCAR-8 ovarian was > 100 µM; in the experiment with RPMI-8226 leukemia, 57.4 µM; in the experiment with UACC-257 melanoma, > 100 µM; in the experiment on UO-31 renal, > 76.3 µM.

As to `CC(C)(C)C1(c2ccc(C3(c4ccccc4)Oc4ccccc4S3)[nH]2)Oc2ccccc2S1` (centres undefined), the TGI in the experiment with LOX IMVI melanoma, in the experiment on NCI-H23 lung, with OVCAR-8 ovarian, with RPMI-8226 leukemia, in the experiment with UACC-257 melanoma and with UO-31 renal was > 100 µM throughout.

On to `O=Nc1ccc(O)c2ncccc12`, for which the TGI in the experiment on KM12 colon was determined as 20.4 µM; in the experiment with LOX IMVI melanoma, 18.6 µM; with MCF7 breast it was 16.6 µM; with MDA-MB-231 breast, 57.3 µM; in the experiment with NCI-H23 lung it was 3.04 µM; in the experiment with NCI/ADR-RES ovarian it was 18.3 µM. The TGI in the experiment with OVCAR-8 ovarian was > 34.1 µM; in the experiment on RPMI-8226 leukemia, 99.8 µM; in the experiment with UACC-257 melanoma, 19.4 µM; in the experiment with UO-31 renal it was 13.5 µM.

Consider `COC1/C=C\OC2(C)Oc3c(C)c(O)c4c(O)c(c(/C=N\OCCCc5ccccc5)c(O)c4c3C2=O)NC(=O)/C(C)=C\C=C/C(C)C(O)C(C)C(O)C(C)C(OC(C)=O)C1C` (centres undefined), for which the TGI in the experiment with KM12 colon came out at 14 µM; in the experiment with LOX IMVI melanoma, 10.2 µM; with MCF7 breast, 5.6 µM; in the experiment on MDA-MB-231 breast it was 7.97 µM; in the experiment with NCI-H23 lung, 10 µM; with NCI/ADR-RES ovarian, 13.4 µM. Moreover, the values for the TGI in the experiment on OVCAR-8 ovarian and in the experiment on UACC-257 melanoma were 17.8 µM and 18.6 µM, respectively.

Consider `N=C(N)c1ccc(-c2ccc(-c3cncc4ccccc34)s2)cc1F`, for which the GI50 with KM12 colon is 1.83 µM; in the experiment on MDA-MB-231 breast it was 1.4 µM; in the experiment on RPMI-8226 leukemia, 1.64 µM; with UO-31 renal, 1.77 µM. For the same compound, the TGI is 3.51 µM in the experiment on KM12 colon, 3.12 µM in the experiment with MDA-MB-231 breast, 4.49 µM with RPMI-8226 leukemia and 3.41 µM with UO-31 renal.

In the case of `C=C(C)C(=O)OC1C(C(C)CCCO)=C(CO)CC2OC(=O)C(=C)C21` (centres undefined), the TGI in the experiment with KM12 colon was 27.7 µM; with LOX IMVI melanoma, 24.5 µM; with MCF7 breast, 24.1 µM; with MDA-MB-231 breast it was 36 µM; in the experiment with NCI-H23 lung, 43 µM; in the experiment on NCI/ADR-RES ovarian, > 100 µM. Also, the TGI in the experiment on OVCAR-8 ovarian is > 100 µM; with RPMI-8226 leukemia, 91.9 µM; with UACC-257 melanoma it was 39.1 µM.

With `Nc1ccc(OCC(O)N2C(=O)c3ccccc3C2=O)cc1` (centres undefined), the TGI in the experiment with LOX IMVI melanoma, in the experiment on MCF7 breast, with MDA-MB-231 breast, in the experiment on NCI/ADR-RES ovarian, with OVCAR-8 ovarian and in the experiment on RPMI-8226 leukemia was > 100 µM throughout. In addition, the TGI in the experiment on UACC-257 melanoma and in the experiment with UO-31 renal was > 100 µM throughout.
